# Patent publication US10493029B2, “Ziyuglycoside II polymer micelle and preparative methods thereof” (SICHUAN INLU WEITE PHARMACEUTICAL TECHNOLOGY CO., LTD., priority 2016, dated 2019)
# Tested on: bone marrow suppression induced by cyclophosphamide in KM-mice
# Experiment: Pharmacodynamic experiment: cyclophosphamide-induced bone marrow suppression, peripheral blood counts
# Format: in vivo
# Protocol: 1. Experimental Materials, Reagents, Apparatus
# Test drugs were ziyuglycoside II micelles and ziyuglycoside II powder.
# Tool drug was cyclophosphamide.
# Laboratory animals were KM-mice: 18.5-22.5 g.
# Laboratory apparatus: Automatic blood counting analyzer; BS-600L electronic balance: specification: 600 g/0.1 g, Shanghai Yousheng Weighing Apparatus Co. Ltd.
# Statistical analysis was performed using SPSS 17.0 software. Data were expressed as mean±standard error (x±S), and one-factor analysis of variance was used among groups. For homogeneity of variance, data between groups were compared by LSD test, while for heterogeneity of variance, data between groups were compared by Tamhane's T2 test.
# After all animals were adaptively fed for one week, according to the body weight, animals were randomly divided as blank group; model group; ziyuglycoside II micelle sample groups 1-4 (respectively using micelles prepared in examples 1-4), with a dosage of 2.5 mg·kg^−1, preparation before use; ziyuglycoside II group: powder of ziyuglycoside II raw materials, dissolved in 10% DMSO-normal saline, with a dosage of 2.5 mg·kg^−1, preparation before use. On the first day of experiment, except for blank group, mice in other groups received cyclophosphamide normal saline solution at a dose of 120 mg·kg^−1 by peritoneal injection, and mice in blank group received the same volume of normal saline by peritoneal injection.
# From the first day of experiment, each experimental group was given the corresponding drug as the predetermined dosage and administration mode, and mice in blank group and model group were given a same volume of normal saline by injection into the tail vein, for successive 6 days.
# On the seventh day of experiment, whole blood was collected from orbit of mice in each experimental group, and placed in 0.5 ml EP tubes containing EDTA anticoagulant agent for test.
# White blood cells (WBC), neutrophilic granulocytes (NEUT), red blood cells (RBC), platelets (PLT), and hemoglobin (HGB) in peripheral blood of mice in each experimental group were counted using automatic blood counting instrument.
# [1] = cyclophosphamide 120 mg/kg i.p. day 1, drug 2.5 mg/kg for 6 days, blood on day 7, mean±standard error
smiles,measurement,setting,value
"C[C@@H]1CC[C@]2(C(=O)O)CC[C@]3(C)C(=CC[C@@H]4[C@@]5(C)CC[C@H](O[C@@H]6OC[C@H](O)[C@H](O)[C@H]6O)C(C)(C)[C@@H]5CC[C@]43C)[C@@H]2[C@]1(C)O [Ziyuglycoside II, 3-O-α-L-arabinosyl-19α-hydroxyurs-12-en-28-oic acid]",numbers of NEUT and HGB in peripheral blood compared with model group,"2.5 mg/kg, P<0.05",did not show significant difference
same,"numbers of WBC, RBC, and PLT in peripheral blood compared with model group","2.5 mg/kg, P<0.05",did not show significant difference
same,HGB in peripheral blood,[1],44.65 ± 7.27 g/L
same,NEUT in peripheral blood,[1],2.47 ± 0.55 ×10^9
same,PLT in peripheral blood,[1],221.18 ± 6.15 ^ ×10^9
same,RBC in peripheral blood,[1],3.54 ± 0.11 ×10^12
same,WBC in peripheral blood,[1],3.71 ± 0.13 ×10^9
